Reference: ChEMBL document CHEMBL3751718, “Synthesis and biological evaluation of lipid-like 5-(2-hydroxyethyl)-4-methyl-1,3-thiazole derivatives as potential anticancer and antimicrobial agents” (Medchemcomm, 2015)
The source made the active and inactive calls. No cut-off for these calls is given here.

Experiments:
Aspergillus niger [1] = experiment: Antifungal activity against Aspergillus niger MSCL 324 at 10 mg/ml after 48 hrs by agar dish diffusion method; assay type: functional; details: MSCL 324, 48 h, read-out: DIZ
Aspergillus niger [2] = experiment: Antifungal activity against Aspergillus niger MSCL 324 at 5 mg/ml after 48 hrs by agar dish diffusion method; assay type: functional; details: for zone of inhibition at 5000 µg/mL: MSCL 324, 48 h, read-out: DIZ
MG-22A [3] = experiment: Induction of nitric oxide production in mouse MG-22A cells by Griess assay; assay type: functional; set-up: concentration or dose not given beside the values
Candida albicans [4] = experiment: Antifungal activity against Candida albicans MSCL 378 at 5 mg/ml after 48 hrs by agar dish diffusion method; assay type: functional; details: MSCL 378, 48 h, read-out: DIZ
Staphylococcus aureus [5] = experiment: Antibacterial activity against Staphylococcus aureus MSCL 334 at 5 mg/ml after 24 hrs by agar dish diffusion method; assay type: functional; details: for zone of inhibition at 5000 µg/mL: MSCL 334, 24 h, read-out: DIZ
Proteus mirabilis [6] = experiment: Antibacterial activity against Proteus mirabilis MSCL 590 at 10 mg/ml after 24 hrs by agar dish diffusion method; assay type: functional; details: for zone of inhibition at 10000 µg/mL: MSCL 590, 24 h, read-out: DIZ
Aspergillus niger [7] = experiment: Fungicidal activity against Aspergillus niger MSCL 324 incubated for 24 hrs followed by colony transfer to agar plates for 24 hrs by colony counting based assay; assay type: functional; details: MSCL 324, 24 h, read-out: MFC99.9
MG-22A [8] = experiment: Cytotoxicity against mouse MG-22A cells assessed as cell viability at 6.25 to 50 ug/ml by crystal violet-based assay; assay type: functional; details: for CC50: read-out: LC50 (the source's name)
Staphylococcus aureus [9] = experiment: Antibacterial activity against Staphylococcus aureus MSCL 334 at 10 mg/ml after 24 hrs by agar dish diffusion method; assay type: functional; details: for zone of inhibition at 10000 µg/mL: MSCL 334, 24 h, read-out: DIZ
Pseudomonas aeruginosa [10] = experiment: Antibacterial activity against Pseudomonas aeruginosa MSCL 331 at 5 mg/ml after 24 hrs by agar dish diffusion method; assay type: functional
Proteus mirabilis [11] = experiment: Antibacterial activity against Proteus mirabilis MSCL 590 at 5 mg/ml after 24 hrs by agar dish diffusion method; assay type: functional; details: for zone of inhibition at 5000 µg/mL: MSCL 590, 24 h, read-out: DIZ
Pseudomonas aeruginosa [12] = experiment: Antibacterial activity against Pseudomonas aeruginosa MSCL 331 at 10 mg/ml after 24 hrs by agar dish diffusion method; assay type: functional; details: for zone of inhibition at 10000 µg/mL: MSCL 331, 24 h, read-out: DIZ
Candida albicans [13] = experiment: Antifungal activity against Candida albicans MSCL 378 after 24 hrs by broth dilution method; assay type: functional; details: MSCL 378, 24 h
Aspergillus niger [14] = experiment: Antifungal activity against Aspergillus niger MSCL 324 after 24 hrs by broth dilution method; assay type: functional; details: MSCL 324, 24 h
[15] = (§1) Cytotoxicity against human HT1080 cells assessed as cell viability at 6.25 to 50 ug/ml after 72 hrs by MTT assay; assay type: functional; details: HT-1080, 72 h, read-out: LC50 (the source's name)
Candida albicans [16] = experiment: Fungicidal activity against Candida albicans MSCL 378 incubated for 24 hrs followed by colony transfer to agar plates for 24 hrs by colony counting based assay; assay type: functional; details: MSCL 378, 24 h, read-out: MFC99.9
Candida albicans [17] = experiment: Antifungal activity against Candida albicans MSCL 378 at 10 mg/ml after 48 hrs by agar dish diffusion method; assay type: functional; details: MSCL 378, 48 h, read-out: DIZ
HT-1080 [18] = experiment: Induction of nitric oxide production in human HT1080 cells by Griess assay; assay type: functional; set-up: concentration or dose not given beside the values
[19] = (§2) Cytotoxicity against human HT1080 cells assessed as cell viability at 6.25 to 50 ug/ml by crystal violet-based assay; assay type: functional; details: HT-1080, read-out: LC50 (the source's name)
Escherichia coli [20] = experiment: Antibacterial activity against Escherichia coli MSCL 332 at 5 mg/ml after 24 hrs by agar dish diffusion method; assay type: functional; details: for zone of inhibition at 5000 µg/mL: MSCL 332, 24 h, read-out: DIZ
Bacillus cereus [21] = experiment: Antibacterial activity against Bacillus cereus MSCL 330 at 5 mg/ml after 24 hrs by agar dish diffusion method; assay type: functional; details: for zone of inhibition at 5000 µg/mL: MSCL 330, 24 h, read-out: DIZ
MG-22A [22] = experiment: Cytotoxicity against mouse MG-22A cells assessed as cell viability at 6.25 to 50 ug/ml after 72 hrs by MTT assay; assay type: functional; details: for CC50: read-out: LC50 (the source's name)
[23] = Cytotoxicity against mouse NIH/3T3 cells assessed as cell viability at 6.25 to 50 ug/ml by neutral red-based assay; details: nih3t3
Escherichia coli [24] = experiment: Antibacterial activity against Escherichia coli MSCL 332 at 10 mg/ml after 24 hrs by agar dish diffusion method; assay type: functional; details: for zone of inhibition at 10000 µg/mL: MSCL 332, 24 h, read-out: DIZ
Bacillus cereus [25] = experiment: Antibacterial activity against Bacillus cereus MSCL 330 at 10 mg/ml after 24 hrs by agar dish diffusion method; assay type: functional; details: for zone of inhibition at 10000 µg/mL: MSCL 330, 24 h, read-out: DIZ
Bacillus cereus [26] = experiment: Bactericidal activity against Bacillus cereus MSCL 330 incubated for 24 hrs followed by colony transfer to agar plates for 24 hrs by colony counting based assay; assay type: functional; details: MSCL 330, 24 h, read-out: MBC99.9
Staphylococcus aureus [27] = experiment: Antibacterial activity against Staphylococcus aureus MSCL 334 after 24 hrs by broth dilution method; assay type: functional; details: MSCL 334, 24 h
Staphylococcus aureus [28] = experiment: Bactericidal activity against Staphylococcus aureus MSCL 334 incubated for 24 hrs followed by colony transfer to agar plates for 24 hrs by colony counting based assay; assay type: functional; details: MSCL 334, 24 h, read-out: MBC99.9
Escherichia coli [29] = experiment: Antibacterial activity against Escherichia coli MSCL 332 after 24 hrs by broth dilution method; assay type: functional; details: MSCL 332, 24 h
Bacillus cereus [30] = experiment: Antibacterial activity against Bacillus cereus MSCL 330 after 24 hrs by broth dilution method; assay type: functional; details: MSCL 330, 24 h
Escherichia coli [31] = experiment: Bactericidal activity against Escherichia coli MSCL 332 incubated for 24 hrs followed by colony transfer to agar plates for 24 hrs by colony counting based assay; assay type: functional; details: MSCL 332, 24 h, read-out: MBC99.9
HT-1080 [32] = experiment: as §1; assay type: functional
HT-1080 [33] = experiment: as §2; assay type: functional

| Structure (SMILES) | zone of inhibition at 10000 µg/mL (Aspergillus niger [1]) [mm] | Activity (MG-22A [3]) [%] | zone of inhibition at 5000 µg/mL (Candida albicans [4]) [mm] | MFC (Aspergillus niger [7]) [µg/mL] | CC50 (MG-22A [8]) | diameter of the inhibition zone (DIZ) (Pseudomonas aeruginosa [10]) | MIC (Candida albicans [13]) [µg/mL] | MIC (Aspergillus niger [14]) [µg/mL] | CC50 [15] | MFC (Candida albicans [16]) [µg/mL] | zone of inhibition at 10000 µg/mL (Candida albicans [17]) [mm] | Activity (HT-1080 [18]) [%] | CC50 [19] | CC50 (MG-22A [22]) | LC50 [23] | zone of inhibition at 5000 µg/mL (Aspergillus niger [2]) [mm] | zone of inhibition at 5000 µg/mL (Staphylococcus aureus [5]) [mm] | zone of inhibition at 10000 µg/mL (Proteus mirabilis [6]) [mm] | zone of inhibition at 10000 µg/mL (Staphylococcus aureus [9]) [mm] | zone of inhibition at 5000 µg/mL (Proteus mirabilis [11]) [mm] | other results |
| --- | --- | --- | --- | --- | --- | --- | --- | --- | --- | --- | --- | --- | --- | --- | --- | --- | --- | --- | --- | --- | --- |
| CCCCCCCCCCCCCCCCCCOCCc1scnc1C | 11 | 5 | 10 | > 256 | > 100 µg/mL | inactive | > 256 | > 256 | > 100 µg/mL | > 256 | 14 | 4 | > 100 µg/mL | > 100 µg/mL | 528 µg/mL |  |  |  |  |  | diameter of the inhibition zone (DIZ) (Aspergillus niger [2]): inactive; diameter of the inhibition zone (DIZ) (Staphylococcus aureus [5]): inactive; diameter of the inhibition zone (DIZ) (Proteus mirabilis [6]): inactive; diameter of the inhibition zone (DIZ) (Staphylococcus aureus [9]): inactive; diameter of the inhibition zone (DIZ) (Proteus mirabilis [11]): inactive; diameter of the inhibition zone (DIZ) (Pseudomonas aeruginosa [12]): inactive; diameter of the inhibition zone (DIZ) (Escherichia coli [20]): inactive; diameter of the inhibition zone (DIZ) (Bacillus cereus [21]): inactive; diameter of the inhibition zone (DIZ) (Escherichia coli [24]): inactive; diameter of the inhibition zone (DIZ) (Bacillus cereus [25]): inactive |
| CCCCCCCCCC[n+]1csc(CCOCCCCCCC)c1C.[I-] | 19 | 350 | 20 | 16 | 0.19 µM |  | 16 | 16 | 3.93 µM | 16 | 21 | 250 | 3.93 µM | 1.96 µM | 19.6 µM | 17 | 21 | 12 | 22 | 11 | MBC (Bacillus cereus [26]): 32 µg/mL; MIC (Staphylococcus aureus [27]): 1 µg/mL; MBC (Staphylococcus aureus [28]): 4 µg/mL; zone of inhibition at 5000 µg/mL (Pseudomonas aeruginosa [10]; MSCL 331, 24 h, read-out: DIZ): 16 mm; zone of inhibition at 10000 µg/mL (Pseudomonas aeruginosa [12]): 20 mm; MIC (Escherichia coli [29]): 32 µg/mL; MIC (Bacillus cereus [30]): 8 µg/mL; MBC (Escherichia coli [31]): 64 µg/mL; zone of inhibition at 5000 µg/mL (Escherichia coli [20]): 15 mm; zone of inhibition at 5000 µg/mL (Bacillus cereus [21]): 20 mm; zone of inhibition at 10000 µg/mL (Escherichia coli [24]): 20 mm; zone of inhibition at 10000 µg/mL (Bacillus cereus [25]): 21 mm |
| Cc1ncsc1CCO |  | 4 |  |  |  |  |  |  |  |  |  | 4 |  |  |  |  |  |  |  |  | LC50 (MG-22A [8]): inactive; LC50 (HT-1080 [32]): inactive; LC50 (HT-1080 [33]): inactive; LC50 (MG-22A [22]): inactive |
| CCCCCCCCCCCOCCc1scnc1C | 15 | 100 | 14 |  | 47.1 µM | inactive |  |  | 50.5 µM |  | 15 | 100 | 53.8 µM | 53.8 µM | 47.1 µM | 9 | 10 | 10 | 13 | 8 | zone of inhibition at 10000 µg/mL (Pseudomonas aeruginosa [12]): 10 mm; zone of inhibition at 5000 µg/mL (Escherichia coli [20]): 9 mm; zone of inhibition at 5000 µg/mL (Bacillus cereus [21]): 10 mm; zone of inhibition at 10000 µg/mL (Escherichia coli [24]): 10 mm; zone of inhibition at 10000 µg/mL (Bacillus cereus [25]): 11 mm |
